Assay results as given in PMC8442276, “Inter-laboratory comparison of water solubility methods applied to difficult-to-test substances” (BMC Chemistry, 2021).
In brackets after ≈: the same amount, converted by molar mass. Read-outs that look alike come from different tables or passages of the source. Marks after values point to notes of the source that are not given here.

Experiments:
[1] = Water solubility by slow-stir method; format: physicochemical; conditions: for solubility: reagent grade water in sealed all-glass aspirator bottles
Experimental: The slow-stir water solubility method uses glass vessels, at least one liter in volume, to which reagent grade water is added. The typical bottle contains a sampling port or spigot at the bottom of the vessel and is filled to a water column height approximating that of the vessel’s tapered shoulders. Slow stir systems are depicted in Additional file 1: Figure S1. This configuration minimizes headspace but maximizes the test substance—water interface. […] The top opening of the vessels is tightly sealed to minimize volatile loss of neat test substance from the system. The excess test substance provides a supply of free product to dissolve and, in the case of volatile substances, evaporate into the headspace. The system is mixed with a minimal vortex imparting just enough energy to move the small dollop of test substance and impart a slight dimple (< 0.5 cm) below the water surface. Care is taken to mix slowly so as to avoid emulsifying the test substance. Water samples are withdrawn from the bottom sampling port of the vessel, extracted and analyzed. As necessary, specific sampling techniques for dissolved volatile organics are used including: the use of gas tight syringes, minimizing sample transfer, and reduced storage duration prior to analysis. Sampling from slow-stir systems occurs over daily or weekly intervals until analysis indicates equilibrium has been reached representing maximum water solubility. Larger test (i.e. 8–20 L) vessels are generally used when the associated analytical method requires extraction of large water sample volumes and also provide a greater surface-to-volume ratio which can be advantageous, especially for surface active compounds. For substances where the solubility is extremely low (i.e. < 10 µg/L) lengthy equilibration periods (weeks-months) may be needed.
The slow-stir water solubility method is not currently cited in existing regulatory guidelines though a number of publications describe its application to difficult-to-test liquid compounds [11–14]. In this ring test, each laboratory employed all glass aspirator bottles with sampling spigots located toward the bottom of the vessels. Water volumes ranged from 0.8 to 4 L with initial vessel headspace accounting for 5 to 20% of the entire vessel volume. n-Hexylcyclohexane loadings ranged from 0.4 to 400 mg/L. The vessels were sealed with Teflon™, polypropylene, glass or high density polyethylene screw plugs or stoppers. Water was stirred at a rate imparting little to no visible vortex and stirring rates were estimated between 80 and 250 rpm. The specific experimental parameters used by each of the participating labs in applying the slow-stir method are listed in Additional file 1: Table S2.

[2] = Water solubility by column elution (generator column) method, OECD 105; format: physicochemical
Excerpt: The column elution method as applied in this ring test is described in several regulatory test guidelines. The typical generator column consists of two concentric glass columns. The inner, narrow column is packed with test substance. The solid test substance is typically dissolved in a volatile solvent which is then pre-loaded onto an inert support phase (e.g. glass beads, diatomaceous earth, chromatographic support material) by rotary evaporation to coat the support phase and then remove the solvent. Alternatively, some practitioners load the column directly with ca. 0.5 g of neat test substance which is retained with plugs of fused silica wool. The outer column provides temperature control (20 °C) as it is connected to a recirculating water bath. Reagent grade water is pumped through the inner column contacting the test substance column at a low flow rate (i.e. < 1 mL/min). The water eluate is collected, extracted and analyzed. Consecutive fractions are collected until the concentration of test substance in water plateaus indicating equilibrium water solubility has been reached. The experiment is then repeated at a flow rate approximately one-half that applied in the first trial to confirm that equilibrium has been reached. In this ring test, two of the five participating labs applied dodecahydrotriphenylene dissolved in solvent to an inert support phase. The solvent was evaporated and the support phase coated with the test compounds. The remaining three laboratories packed the columns with neat test substance. Across the five laboratories, the column flow for the first run ranged from 0.4 to 0.8 mL/min. The volume of each fraction collected for analysis ranged from 5 to 25 mL. Details of the experimental parameters used by each of the participating labs in applying the generator column method are listed in Additional file 1: Table S1.

Mean measured water solubility, inter-laboratory mean ([1]; 20 °C, mean of n = 5 labs) [µg/mL] | solubility ([1]; 20 °C, mean of n = 5 labs, read-out: Mean measured water solubility, inter-laboratory mean) [µg/mL] | solubility ([1]; 20 °C, n = 5 labs, read-out: Range of measured water solubility values across labs) [µg/mL] | solubility ([1]; 20 °C, water, thermodynamic from solid, Laboratory B, second attempt, read-out: Mean measured Concentration (water solubility)) [µg/mL] | solubility ([1]; 20 °C, water, thermodynamic from solid, Laboratory E, second attempt, read-out: Mean measured Concentration (water solubility)) [µg/mL] | solubility ([1]; water, thermodynamic from solid, Laboratory A, read-out: Mean measured Concentration (water solubility)) [µg/mL] | solubility ([1]; water, thermodynamic from solid, Laboratory B, first attempt, equilibrium not demonstrated, not included in mean, read-out: Mean measured Concentration (water solubility), first attempt) [µg/mL] | solubility ([1]; water, thermodynamic from solid, Laboratory C, read-out: Mean measured Concentration (water solubility)) [µg/mL] | solubility ([1]; water, thermodynamic from solid, Laboratory D, read-out: Mean measured Concentration (water solubility)) [µg/mL] | solubility ([1]; water, thermodynamic from solid, Laboratory E, first attempt, equilibrium not demonstrated, not included in mean, read-out: Mean measured Concentration (water solubility), first attempt) [µg/mL] | Mean Measured Concentration (water solubility) ([2]; Laboratory A, column packed directly with neat solid) | Mean Measured Concentration (water solubility) ([2]; Laboratory B, test substance on support) [µg/L] | Mean Measured Concentration (water solubility) ([2]; Laboratory C, test substance on support) [µg/L] | Mean Measured Concentration (water solubility) ([2]; Laboratory D, column packed directly with neat solid) | Mean Measured Concentration (water solubility) ([2]; Laboratory E, column packed directly with neat solid, statistical outlier, not included in mean) [µg/L] | Mean measured water solubility, inter-laboratory mean ([2]; column elution, 20 °C, mean of n = 4 labs (Lab E excluded as outlier)) [µg/mL] | Range of measured water solubility values across labs ([2]; column elution, 20 °C, n = 4 labs) [µg/mL] | SMILES
0.014 | 0.014 (≈ 0.0832 µM) | 0.011 to 0.016 (≈ 0.0654 to 0.0951 µM) | 0.012 (≈ 0.0713 µM) | 0.016 (≈ 0.0951 µM) | 0.015 (≈ 0.0891 µM) | 0.0056 (≈ 0.0333 µM) | 0.014 (≈ 0.0832 µM) | 0.011 (≈ 0.0654 µM) | 0.0057 (≈ 0.0339 µM) | – | – | – | – | – | – | – | CCCCCCC1CCCCC1 [n-Hexylcyclohexane]
– | – | – | – | – | – | – | – | – | – | 2.8^p µg/L | 3.2 | 2.1 | 2.3^p µg/L | 0.66 | 0.0026 | 0.0021 to 0.0032 | C1CCc2c(c3c(c4c2CCCC4)CCCC3)C1 [Dodecahydrotriphenylene]
